# Data taken from paper PMC4763182 (Scientific Reports, 2016).
# Key:
# [1] = test system: recombinant histidine-tagged Stx2B subunit (2BH); assay type: binding, Escherichia coli
# [2] = test system: binding of 125I-Stx2 to HeLa cells; assay type: cell-based
# [3] = test system: Stx2 cytotoxicity toward HeLa cells
sequence,measurement,setting,value
HNPMSFPTPRLY [HN-11],concentration dependence of binding to 2BH,[1],did not significantly change
same,inhibitory effect on the uptake of Stx2,[2],almost no inhibitory effect
same,inhibitory effect on Stx2 cytotoxicity,[3],Almost no inhibitory effect
